From PubChem BioAssay AID1996
≈ marks a conversion by molar mass, not a printed value.

Details: buffer; pH 7.4; 200.0 µM

Point of comparison: `O=C1c2ccccc2NC(c2ccc(O)cc2)N1c1ccccc1` (stereo unspecified), solubility kinetic 9.5 µg/mL (≈ 30 µM). Against it:
- CC(OC(=O)C1CC1)C(=O)Nc1ncc(Cl)cc1Cl (stereo unspecified) — higher, > 45.5 µg/mL
- CCCCOc1ccc(S(=O)(=O)N2CCCCC2)cc1 — 8.6-fold lower, 1.1 µg/mL (≈ 3.7 µM)
- CCc1cccc(C)c1NC(=S)N1CCCCC1c1cccnc1 (stereo unspecified) — 4.9-fold higher, 46.3 µg/mL (≈ 136 µM)
- Cc1ccc2cc(NC(=O)c3ccccc3C)ccc2n1 — 3.9-fold higher, 37.4 µg/mL (≈ 135 µM)
- O=C(N/C(=C\c1ccc(Cl)cc1)C(=O)N1CCCCC1)c1ccco1 — higher, > 53.8 µg/mL
- O=C(c1cc(C(=O)N2CCCC2)cc([N+](=O)[O-])c1)N1CCCC1 — higher, > 47.6 µg/mL
- COc1ccccc1C1(O)C(=O)Nc2ccc(C)cc21 (stereo unspecified) — higher, > 40.4 µg/mL
- CCN1CCN(CCC(=O)Nc2cc(OC)cc(OC)c2)CC1 — 3.7-fold higher, 35.2 µg/mL (≈ 110 µM)
- O=S(=O)(c1ccc(Cl)cc1)N1CCC2(CC1)OCCO2 — higher, > 47.7 µg/mL
- O=C1NC(c2ccccc2Cl)=N/C1=C/c1ccco1 — within 1.5-fold, 8.5 µg/mL (≈ 31.2 µM)
- Cc1ccc(Nc2cc(C)nc3c(C)cccc23)cc1 — 3.7-fold higher, 35 µg/mL (≈ 133 µM)
- N#CCSc1nc2sccc2c(=O)n1-c1ccccc1 — 3.9-fold higher, 37 µg/mL (≈ 124 µM)
- COc1ccc(OCC(O)CNC(=O)c2sccc2Cl)cc1 (stereo unspecified) — 4.8-fold higher, 46 µg/mL (≈ 135 µM)
- NS(=O)(=O)c1ccc(CNC(=O)c2ccccn2)cc1 — higher, > 43.7 µg/mL
- Cc1noc(C)c1-c1nc(CSc2ccc(Cl)cc2)no1 — lower, < 0.2 µg/mL
- CCc1nc2ccccc2n1CCc1ccccc1.Cl — 4-fold higher, 37.6 µg/mL
- Cc1cc(NC(=O)c2cccc(S(=O)(=O)Nc3cccc(C(=O)O)c3)c2)no1 — higher, > 60.2 µg/mL
- COc1ccc(CCNC(=O)Nc2cccc([N+](=O)[O-])c2)cc1 — 4.1-fold lower, 2.3 µg/mL (≈ 7.29 µM)
- COc1cc(NC(=S)Nc2ccc3c(c2)OCCO3)cc(OC)c1OC — higher, > 56.5 µg/mL
- O=C(CNC(=O)c1ccccc1Cl)OC1CCOC1=O (stereo unspecified) — 4.4-fold higher, 42.1 µg/mL (≈ 141 µM)
- CCSc1nc(-c2cccs2)nc2ccccc12 — 32-fold lower, 0.3 µg/mL (≈ 1.1 µM)
- CC(C)(C)NCCOc1ccc2ccccc2c1 — 2.8-fold higher, 26.8 µg/mL (≈ 110 µM)
- CC1CCCN(C(=O)COC(=O)C2=COCCO2)C1 (stereo unspecified) — higher, > 40.4 µg/mL
- O=C(COC(=O)c1cc(-c2ccccc2)nc2ccccc12)NC1CC1 — within 1.5-fold, 6.6 µg/mL (≈ 19.1 µM)
- O=C(O)c1ccc2c(c1)C(=O)N(CCc1ccccc1)C2=O — higher, > 44.3 µg/mL
- O=C(COC(=O)c1cc(S(=O)(=O)N2CCOCC2)ccc1F)Nc1ccc2c(c1)OCO2 — 5.8-fold higher, 54.8 µg/mL (≈ 117 µM)
- CC(C)CCNC(=O)c1cc2c(=O)[nH]c3ccccc3c2s1 — lower, < 0.3 µg/mL
- O=C(COc1ccccc1F)NCCc1ccc2c(c1)OCCO2 — higher, > 49.7 µg/mL
- COc1ccc(-n2c(C)cc(C(=O)CN3CCC(C)CC3)c2C)cc1 — 4.9-fold higher, 46.3 µg/mL (≈ 136 µM)
- CNCCc1ccc(OC)c(OC)c1 — higher, > 29.3 µg/mL
- O=C(Nc1ccccc1Cl)c1ccc2ccccc2c1 — lower, < 0.6 µg/mL
- Cc1cc(C)c(OCCNCc2ccccc2)c(C)c1.O=C(O)C(=O)O — 4.5-fold higher, 42.5 µg/mL
- CN(C(=O)Nc1ccc(C(C)(C)C)cc1)C1CCCCC1 — lower, < 0.3 µg/mL
- CC(=O)C1=C(O)C(=O)N(c2ccc(O)cc2)C1c1cccc([N+](=O)[O-])c1 (stereo unspecified) — higher, > 53.1 µg/mL
- O=C(CSc1cccc[n+]1[O-])c1cccs1 — 2.9-fold higher, 28 µg/mL (≈ 111 µM)
- CCOc1nc(CC(C)C)c2c(c1C#N)CC(C)(C)OC2 — 4-fold lower, 2.4 µg/mL (≈ 8.32 µM)
- COC(=O)c1csc(S(=O)(=O)N2CCCCC2)c1OC — higher, > 47.9 µg/mL
- COc1ccc(N(CC(=O)Nc2cccnc2)S(=O)(=O)c2ccccc2)cc1Cl — 3.6-fold higher, 34.2 µg/mL (≈ 79.2 µM)
- O=C(CSc1nnc2ccccn12)NNC(=O)c1cccc(Cl)c1 — higher, > 54.3 µg/mL
- CC1CC(C)CN(C(=O)c2cc3ccccc3o2)C1 (stereo unspecified) — 3-fold higher, 28.7 µg/mL (≈ 112 µM)
- CCN1CCN(c2ccc(N)c(C)c2)CC1 — 3-fold higher, 28.7 µg/mL (≈ 131 µM)
- CCN1C(=O)c2ccc(C(=O)Nc3c(C)cc(C)cc3C)cc2C1=O — lower, < 0.4 µg/mL
- O=C(Nc1nccs1)C(c1ccccc1)N1CCCC1 (stereo unspecified) — higher, > 43.1 µg/mL
- Cc1cccc(C(=O)OCC(=O)N(C)c2ccccc2)c1C — higher, > 44.6 µg/mL
- CC(C)OC(=O)CSc1nc(Cc2ccccc2)nc2ccccc12 — lower, < 0.4 µg/mL
- COc1cccc(NC(=O)CN2CCSc3ccccc32)c1 — 2.7-fold higher, 25.5 µg/mL (≈ 81.1 µM)
- CN(C)/C=N/C(=S)Nc1ccccc1 — higher, > 31.1 µg/mL
- O=C(NCCOC(=O)c1ccccc1)c1ccccc1 — higher, > 40.4 µg/mL
- O=C(NCc1cccs1)C1CCCN(C(=O)Nc2ccccc2)C1 (stereo unspecified) — 2.3-fold higher, 21.7 µg/mL (≈ 63.2 µM)
- CNC(=O)/C(C#N)=C/c1c(N2CCN(C)CC2)nc2c(C)cccn2c1=O — higher, > 55 µg/mL
- COc1ccccc1-n1ccnc1SCC(=O)NC(C)(C)C — 4.6-fold higher, 43.9 µg/mL (≈ 137 µM)
- O=c1[nH]c2c(Br)cnc([N+](=O)[O-])c2[nH]1 — higher, > 38.9 µg/mL
- Cc1ccc(NC(=S)Nc2cccc3cnccc23)cc1 — 3.2-fold higher, 30 µg/mL (≈ 102 µM)
- CCOc1ccc(NC(=O)COC(=O)Cn2nc(C)c([N+](=O)[O-])c2C)cc1OCC — higher, > 63.1 µg/mL
- C/C(=C/c1ccccc1)C(=O)N1CCC(C)CC1 — higher, > 36.5 µg/mL
- CN(C)c1ccc(C(=O)NCC(c2cccs2)N2CCOCC2)cc1 (stereo unspecified) — 5.2-fold higher, 49.3 µg/mL (≈ 137 µM)
- O=C(NCCCn1ccnc1)c1ccc(-c2ccccc2)cc1 — higher, > 45.8 µg/mL
- S=c1[nH]c2ccccc2[nH]1 — higher, > 22.5 µg/mL
- CC1CC2(CCCC2)Nc2ccc(F)cc21.Cl (stereo unspecified) — 14-fold lower, 0.7 µg/mL
- CC(=O)NC(c1ccc(C(C)C)cc1)c1c(O)ccc2ccccc12 (stereo unspecified) — lower, < 0.7 µg/mL
- Cc1cccc(NC(=O)CSc2nc(C3CC3)nc3ccccc23)c1 — 32-fold lower, 0.3 µg/mL (≈ 0.858 µM)
- O=C(NCc1cccnc1)Nc1cc(Cl)cc(Cl)c1 — 1.6-fold higher, 15.2 µg/mL (≈ 51.3 µM)
- O=C(NC1CCCC1)C(=O)c1c[nH]c2ccccc12 — within 1.5-fold, 12.1 µg/mL (≈ 47.2 µM)
- Cc1cc(S(=O)(=O)NCC2CC2)c(Cl)cc1Cl — higher, > 44.1 µg/mL
- O=C(CCNC(=O)c1ccccc1)NCCCc1ccccc1 — higher, > 46.6 µg/mL
- C[C@H](NC(=O)c1ccc2c(c1)OCO2)c1nnc2ccccn12 — higher, > 46.5 µg/mL
- CN1CCC2(CC1)N=C(c1ccc(F)cc1)C(=S)N2 — 4.2-fold higher, 39.8 µg/mL (≈ 143 µM)
- COc1ccc(C(=O)N(c2ccc(C)cc2)C2C=CS(=O)(=O)C2)cc1OC (stereo unspecified) — 5.8-fold higher, 55.3 µg/mL (≈ 143 µM)
- CC(C)CC1NC(=O)N(CC(=O)Nc2ccc3c(c2)CCC3)C1=O (stereo unspecified) — 1.7-fold lower, 5.6 µg/mL (≈ 17 µM)
- Cn1c(=O)oc2cc(S(=O)(=O)Nc3ccccc3F)ccc21 — 1.6-fold higher, 15.6 µg/mL (≈ 48.4 µM)
- CC(=O)c1c(C)[nH]c(C(=O)COC(=O)c2c(-c3ccccc3)noc2C)c1C — 4.5-fold lower, 2.1 µg/mL (≈ 5.52 µM)
- O=C(Cn1cc(C(F)(F)F)ccc1=O)NCc1ccc(F)cc1 — higher, > 49.2 µg/mL
- Cc1ccc(C(=O)OCC(=O)Nc2ccccc2Cl)c(O)c1 — 12-fold lower, 0.8 µg/mL (≈ 2.5 µM)
- O=C1OCC2=C1C(c1ccccc1)CC(=O)N2c1ccc(F)cc1 (stereo unspecified) — higher, > 48.5 µg/mL
- Cc1ccc(C)c(OCCCCN2CCCCC2)c1.O=C(O)C(=O)O — 5-fold higher, 47.5 µg/mL
- Cc1ccc(C)c(NC(=O)/C(C#N)=C/c2ccc[nH]2)c1 — 2.6-fold lower, 3.7 µg/mL (≈ 13.9 µM)
- Cc1ccc(/C(N)=N/OC(=O)c2ccc3ccccc3c2)cc1 — 9.5-fold lower, 1 µg/mL (≈ 3.29 µM)
- COc1ccc(NC(=O)CSc2cc(C)ccc2C)cn1 — 4.7-fold higher, 45.1 µg/mL (≈ 149 µM)
- COc1ccc(C(=O)NCCc2c[nH]c3ccc(OC)cc23)cc1 — higher, > 48.7 µg/mL
- COCCN1C(=O)NC(=O)/C(=C\c2ccc(F)cc2)C1=O — 3.5-fold higher, 33.5 µg/mL (≈ 115 µM)
- O=C(Nc1ccc(CN2CCS(=O)(=O)CC2)cc1)c1ccccc1 — 3.3-fold higher, 31.4 µg/mL (≈ 91.2 µM)
- CC(=O)/C=C(\C)Nc1c(C)n(C)n(-c2ccccc2)c1=O — higher, > 42.8 µg/mL
- CC(C)(C)C(=O)Cn1ncc(N2CCOCC2)c(Cl)c1=O — higher, > 47.1 µg/mL
- CCOC(=O)c1ccc(NC(=O)c2cccnc2)cc1 — higher, > 40.5 µg/mL
- CC(=O)Nc1ccc2c(c1)nc(C)n2Cc1ccccc1 — higher, > 41.9 µg/mL
- CCCCn1c(N)c(N(CC)C(=O)C2CCC2)c(=O)[nH]c1=O — higher, > 46.3 µg/mL
- Cc1ccsc1C(=O)N1CCN(c2ncccn2)CC1 — higher, > 43.3 µg/mL
- COc1cc(Br)ccc1NC(=O)c1ccccc1-c1ccccc1C(=O)O — 5.6-fold higher, 53.3 µg/mL (≈ 125 µM)
- N#Cc1cc([N+](=O)[O-])ccc1NC(=O)CSc1n[nH]c(=O)[nH]c1=O — higher, > 52.2 µg/mL
- O=C(Nc1ccc(F)cc1)Nc1cccnc1Cl — within 1.5-fold, 13.8 µg/mL (≈ 51.9 µM)
- CCn1c(SCC(=O)O)nnc1-c1ccccc1OC — higher, > 44 µg/mL
- Cc1ccccc1NC(=S)Nc1ccc2[nH]c(=O)[nH]c2c1 — 4.4-fold higher, 41.7 µg/mL (≈ 140 µM)
- COc1ccc(C(=O)Nc2nc3ccccc3s2)c(OC)c1 — 9.5-fold lower, 1 µg/mL (≈ 3.18 µM)
- O=C(CCc1ccccc1)Nc1cccc(S(=O)(=O)N2CCOCC2)c1 — 5.3-fold higher, 50.6 µg/mL (≈ 135 µM)
- CCc1ccc(OCC(=O)N2CC(C(=O)OC)Oc3ccccc32)cc1 (stereo unspecified) — 3.9-fold higher, 36.6 µg/mL (≈ 103 µM)
- CC(C)(C)NC(=O)NC(=O)COC(=O)c1cc[n+]([O-])cc1 — higher, > 44.3 µg/mL
- COc1ccc(CC(=O)NC(C)CCc2ccccc2)cc1OC (stereo unspecified) — higher, > 49.1 µg/mL
- CCc1nc(Nc2ccc(F)cc2)c2oc3ccccc3c2n1.Cl — 12-fold lower, 0.8 µg/mL
- COc1ccc(C(=O)NCC(=O)c2ccccc2)cc1 — higher, > 40.4 µg/mL
- CCN1CCN(C(=O)C2COc3ccccc3O2)CC1 (stereo unspecified) — higher, > 41.5 µg/mL
- O=C(Cc1ncon1)Nc1ccc(F)c(F)c1F — 4-fold higher, 38.1 µg/mL (≈ 148 µM)
- CC1(C)CC(=O)c2cnc3nc4ccccc4n3c2C1 — 2.8-fold higher, 26.6 µg/mL (≈ 100 µM)
- CC1CN(C(=O)COC(=O)c2ccc(Cl)nc2)CC(C)O1 (stereo unspecified) — 4.5-fold higher, 42.3 µg/mL (≈ 135 µM)
- O=S(=O)(c1cccs1)N1CCN(c2ccc(Cl)cc2)CC1 — lower, < 0.4 µg/mL
- O=C(CN1C(=O)COc2ccc(Cl)cc21)N1CCOCC1 — higher, > 46.6 µg/mL
- OC(CCN1CCC2(CC1)OCCO2)C(F)(F)F (stereo unspecified) — higher, > 40.4 µg/mL
- O=C(Nc1cccc(F)c1)c1ccc2ncsc2c1 — 4.2-fold higher, 39.8 µg/mL (≈ 146 µM)
- [O-][n+]1c(/C=C/c2ccccc2)ccc2ccccc21 — higher, > 37.1 µg/mL
- FC(F)(F)c1cccc(N2CCN(C3CC4CCC3C4)CC2)c1 (stereo unspecified) — 6.8-fold lower, 1.4 µg/mL (≈ 4.32 µM)
- Cn1cnnc1SCC(=O)Nc1ccc(F)cc1 — higher, > 39.9 µg/mL
- CC(C)c1cccc(C(C)C)c1NC(=O)CN1CCCC1 — higher, > 43.3 µg/mL
- Cl.c1ccc2c(N3CCNCC3)cccc2c1 — higher, > 37.3 µg/mL
- COc1cc(C(=O)NCCNC(=O)c2cnccn2)cc(OC)c1OC — 4.1-fold higher, 39.4 µg/mL (≈ 109 µM)
- COc1ccccc1C(=O)OCCN=C1NS(=O)(=O)c2ccccc21 — higher, > 54.1 µg/mL
- CO/N=C1\CCn2c1c(C)c1ccccc12 — 12-fold lower, 0.8 µg/mL (≈ 3.73 µM)
- CCOc1cc(/C=C2\SC(N)=NC2=O)ccc1O — 2.4-fold higher, 22.5 µg/mL (≈ 85.1 µM)
- Cc1cc(C)cc(NC(=O)Nc2cccc(S(N)(=O)=O)c2)c1 — 3.8-fold lower, 2.5 µg/mL (≈ 7.83 µM)
- COc1ccc(/C=C2\N=C3CCCN3C2=O)cc1 — higher, > 36.3 µg/mL
- C/C(=N\N=C(N)N)c1ccccc1 — higher, > 26.4 µg/mL
- CCCN(CCC)S(=O)(=O)c1cccc(-c2csc(C)n2)c1 — within 1.5-fold, 8 µg/mL (≈ 23.6 µM)
